In patent US9748593B2, “Polymer electrolyte composition, and polymer electrolyte membrane, membrane electrode complex and solid polymer-type fuel cell each produced using same” (TORAY INDUSTRIES, INC., priority 2012, dated 2017) one finds solubility data, which are given here for 23 compounds.

Broadly, the solubility is how much of the substance goes into solution per volume. A higher solubility goes with much dissolved substance.

This data set in a line: physchem. The conditions noted are these: 60 °C, thermodynamic from solid. Here is the method: • (6) Solubility of Nitrogen-Containing Additive
After 100 mg of the nitrogen-containing additive and 1 L of a solvent were mixed, the resulting mixture was stirred at a rotational speed of 200 rpm at 60° C. for 1 hour using a mixing machine to dissolve the nitrogen-containing additive.

In brackets after ≈: the same amount, converted by molar mass.

Regarding `c1cc(-c2ccc3ccc4ccc(-c5cccc6ccccc56)nc4c3n2)cc(-c2ccc3ccc4ccc(-c5cccc6ccccc56)nc4c3n2)c1` [ADT-14], the solubility at 1 h (aqueous buffer) is 2.8 µg/mL (≈ 4.08 µM) and the solubility at 1 h (water) is < 0.1 µg/mL.

Turning to `c1cc(-c2ccc3ccc4cccnc4c3n2)cc(-c2ccc3ccc4cccnc4c3n2)c1` [ADT-1], the solubility at 1 h by setting is: (aqueous buffer) 5 µg/mL (≈ 11.5 µM); (water) < 0.1 µg/mL.

Consider `c1ccc(-c2ccc(-c3ccc4ccc5cccnc5c4n3)cc2)c(-c2ccc(-c3ccc4ccc5cccnc5c4n3)cc2)c1` [ADT-8], for which the solubility at 1 h (aqueous buffer) was determined as 3.3 µg/mL (≈ 5.62 µM) and the solubility at 1 h (water) is < 0.1 µg/mL.

For `CC(C)(C)c1ccc(-c2ccc3ccc4ccc(-c5cccc(-c6ccc7ccc8ccc(-c9ccc(C(C)(C)C)cc9)nc8c7n6)c5)nc4c3n2)cc1` [ADT-11], the solubility at 1 h (aqueous buffer) amounted to 2.9 µg/mL (≈ 4.15 µM) and the solubility at 1 h (water) was < 0.1 µg/mL.

`O=S(=O)(O)c1ccc(-c2ccc3ccc4ccc(-c5cccc(-c6ccc7ccc8ccc(-c9ccc(S(=O)(=O)O)cc9)nc8c7n6)c5)nc4c3n2)cc1` [ADT-21]: the solubility at 1 h is 6.3 µg/mL (≈ 8.44 µM) (aqueous buffer) and < 0.1 µg/mL (water).

Consider `c1cnc2c(c1)ccc1cccnc12` [1,10-phenanthroline, reference compound], for which the solubility at 1 h (aqueous buffer) is ≥ 100 µg/mL and the solubility at 1 h (water) is ≥ 100 µg/mL.

On to `Cc1ccc(-c2ccc3ccc4ccc(-c5cccc(-c6ccc7ccc8ccc(-c9ccc(C)cc9)nc8c7n6)c5)nc4c3n2)cc1` [ADT-13], for which the solubility at 1 h (aqueous buffer) was found to be 3.2 µg/mL (≈ 5.21 µM) and the solubility at 1 h (water) was < 0.1 µg/mL.

`c1ccc2c(-c3ccc4ccc5ccc(-c6ccc(-c7ccc8ccc9ccc(-c%10cccc%11ccccc%10%11)nc9c8n7)cc6)nc5c4n3)cccc2c1` [ADT-4]: the solubility at 1 h is 1.9 µg/mL (≈ 2.77 µM) (aqueous buffer) and < 0.1 µg/mL (water).

For `c1ccc(-c2ccc3ccc4ccc(-c5ccc(-c6ccc7ccc8ccc(-c9ccccc9)nc8c7n6)cc5)nc4c3n2)cc1` [ADT-15], the solubility at 1 h is 2.5 µg/mL (≈ 4.26 µM) (aqueous buffer) and < 0.1 µg/mL (water).

As to `c1cnc2c(c1)ccc1ccc(-c3ccc(C(c4ccc(-c5ccc6ccc7cccnc7c6n5)cc4)(c4ccc(-c5ccc6ccc7cccnc7c6n5)cc4)c4ccc(-c5ccc6ccc7cccnc7c6n5)cc4)cc3)nc12` [ADT-19], the solubility at 1 h was < 0.1 µg/mL (aqueous buffer) and < 0.1 µg/mL (water).

As for `Nc1ccc(-c2ccc3ccc4ccc(-c5cccc(-c6ccc7ccc8ccc(-c9ccc(N)cc9)nc8c7n6)c5)nc4c3n2)cc1` [ADT-20], the solubility at 1 h was 7.5 µg/mL (≈ 12.2 µM) (aqueous buffer) and < 0.1 µg/mL (water).

In the case of `CC(C)(C)c1ccc(-c2ccc3ccc4ccc(-c5ccc(-c6ccc7ccc8ccc(-c9ccc(C(C)(C)C)cc9)nc8c7n6)cc5)nc4c3n2)cc1` [ADT-16], the solubility at 1 h (aqueous buffer) is 2.8 µg/mL (≈ 4.01 µM) and the solubility at 1 h (water) is < 0.1 µg/mL.

`c1ccc(-c2ccc3ccc4ccc(-c5cccc(-c6ccc7ccc8ccc(-c9ccccc9)nc8c7n6)c5)nc4c3n2)cc1` [ADT-2]: the solubility at 1 h was 3.4 µg/mL (≈ 5.8 µM) (aqueous buffer) and < 0.1 µg/mL (water).

As for `c1cnc2c(c1)ccc1ccc(-c3ccc(-c4ccc5ccc6cccnc6c5n4)cc3)nc12` [ADT-3], the solubility at 1 h reads like this: (aqueous buffer) 4.2 µg/mL (≈ 9.67 µM); (water) < 0.1 µg/mL.

Regarding `c1cc(-c2ccc(-c3ccc4ccc5cccnc5c4n3)cc2)cc(-c2ccc(-c3ccc4ccc5cccnc5c4n3)cc2)c1` [ADT-9], the solubility at 1 h runs as follows: (aqueous buffer) 3 µg/mL (≈ 5.11 µM); (water) < 0.1 µg/mL.

With `c1ccc(-c2ccc3ccc4ccc(-c5ccc6ccc(-c7ccc8ccc9ccc(-c%10ccccc%10)nc9c8n7)cc6c5)nc4c3n2)cc1` [ADT-6], the solubility at 1 h runs as follows: (aqueous buffer) 2.6 µg/mL (≈ 4.08 µM); (water) < 0.1 µg/mL.

For `c1cnc2c(c1)ccc1ccc(-c3ccc4ccc(-c5ccc6ccc7cccnc7c6n5)cc4c3)nc12` [ADT-5], the solubility at 1 h was 4 µg/mL (≈ 8.25 µM) (aqueous buffer) and < 0.1 µg/mL (water).

`c1cc(-c2cccc(-c3ccc4ccc5cccnc5c4n3)c2)cc(-c2ccc3ccc4cccnc4c3n2)c1` [ADT-17]: the solubility at 1 h was 4.6 µg/mL (≈ 9.01 µM) (aqueous buffer) and < 0.1 µg/mL (water).

Regarding `Nc1cc2cccnc2c2ncccc12` [5-amino-1,10-phenanthroline, reference compound], the solubility at 1 h is, setting by setting: (aqueous buffer) ≥ 100 µg/mL; (water) ≥ 100 µg/mL.

Take `c1cnc2c(c1)ccc1ccc(-c3cccc4c(-c5ccc6ccc7cccnc7c6n5)cccc34)nc12` [ADT-7]: the solubility at 1 h is 4.5 µg/mL (≈ 9.29 µM) (aqueous buffer) and < 0.1 µg/mL (water).

With `c1cc(-c2cccc(-c3ccc4ccc5cccnc5c4n3)c2)cc(-c2cccc(-c3ccc4ccc5cccnc5c4n3)c2)c1` [ADT-10], the solubility at 1 h by setting is: (aqueous buffer) 3.6 µg/mL (≈ 6.14 µM); (water) < 0.1 µg/mL.

On to `Cc1cc(C)cc(-c2ccc3ccc4ccc(-c5cccc(-c6ccc7ccc8ccc(-c9cc(C)cc(C)c9)nc8c7n6)c5)nc4c3n2)c1` [ADT-12], for which the solubility at 1 h was 3.1 µg/mL (≈ 4.82 µM) (aqueous buffer) and < 0.1 µg/mL (water).

For the compound `c1cnc2c(c1)ccc1ccc(-c3cc(-c4ccc5ccc6cccnc6c5n4)cc(-c4ccc5ccc6cccnc6c5n4)c3)nc12` [ADT-18], the solubility at 1 h is 1.3 µg/mL (≈ 2.12 µM) (aqueous buffer) and < 0.1 µg/mL (water).
